Measured values: patent publication US7816134B2, “Method of extensive culture of antigen-specific cytotoxic T cells” (Takara Bio Inc., priority 2000, dated 2010)
Where two headings read alike, the source gives them in different places.

Legend:
[1] = test system: anti-influenza virus memory CTLs (FluMPA2.1); format: cell-based, human
[2] = test system: HLA-A2.1-having EBV transformed B-cells (221A2.1); settings: for Cytotoxic Activity (%) E/T Ratio 1 / Cytotoxic Activity (%) E/T Ratio 3 / Cytotoxic Activity (%) E/T Ratio 10 / Cytotoxic Activity (%) E/T Ratio 2.5 / Cytotoxic Activity (%) E/T Ratio 5: FluMPA2.1
[3] = test system: HLA-A2.1-having EBV transformed B-cells (221A2.1); settings: for Cytotoxic Activity (%) E/T Ratio 3 / Cytotoxic Activity (%) E/T Ratio 10 / Cytotoxic Activity (%) E/T Ratio 1 / Cytotoxic Activity (%) E/T Ratio 30: FluMPA2.1
[4] = Example 2-6, sample during CTL induction −, during expansion + (10 μg/ml)
[5] = Example 1-2, sample 10 μg/ml during CTL induction +, during culture with IL-2 +, peptide addition +
[6] = Example 1-2, sample 10 μg/ml during CTL induction +, during culture with IL-2 +, peptide addition −
[7] = sample 10 μg/ml during CTL induction and during continuous culture, 10 to 14 days
[8] = Example 2-3, sample 10 μg/ml during CTL induction +, during expansion +, peptide addition +
[9] = Example 2-3, sample 10 μg/ml during CTL induction +, during expansion +, peptide addition −
[10] = Example 2-6, sample during CTL induction −, during expansion + (10 μg/ml), peptide addition +
[11] = Example 2-6, sample during CTL induction −, during expansion + (10 μg/ml), peptide addition −
[12] = Example 2-7, sample 10 μg/ml during CTL induction +, during expansion +, peptide addition +
[13] = Example 2-7, sample 10 μg/ml during CTL induction +, during expansion +, peptide addition −
[14] = Example 2-7, sample 10 μg/ml during CTL induction +, during expansion −, peptide addition +
[15] = Example 2-7, sample 10 μg/ml during CTL induction +, during expansion −, peptide addition −
[16] = Example 2-4, sample 10 μg/ml during CTL induction +, during expansion +
[17] = Example 1-3, sample 10 μg/ml during CTL induction +, during culture with IL-2 +, peptide addition +
[18] = Example 1-3, sample 10 μg/ml during CTL induction +, during culture with IL-2 +, peptide addition −
[19] = Example 1-5, sample during CTL induction −, during culture with IL-2 + (10 μg/ml), peptide addition +
[20] = Example 1-5, sample during CTL induction −, during culture with IL-2 + (10 μg/ml), peptide addition −
[21] = sample 10 μg/ml only during continuous culture
[22] = Example 2-4, sample 10 μg/ml during CTL induction +, during expansion +, peptide addition +
[23] = Example 2-4, sample 10 μg/ml during CTL induction +, during expansion +, peptide addition −
[24] = Example 1-4, sample 10 μg/ml during CTL induction +, during culture with IL-2 +, peptide addition +
[25] = Example 1-4, sample 10 μg/ml during CTL induction +, during culture with IL-2 +, peptide addition −

CC1OC(OC2C(OC3C(OC4C(OS(=O)(=O)O)C(C)OC(O)C4OS(=O)(=O)O)OC(C)C(OS(=O)(=O)O)C3OC3OC(C)C(OS(=O)(=O)O)C(OS(=O)(=O)O)C3OS(=O)(=O)O)OC(C)C(OS(=O)(=O)O)C2OC2OC(C)C(OS(=O)(=O)O)C(OC3OC(C)C(OS(=O)(=O)O)C(O)C3OS(=O)(=O)O)C2OS(=O)(=O)O)C(O)C(OS(=O)(=O)O)C1O (centres unmarked) [7-12SFd-F]
Expansion Ratio ([1]; Example 2-3, sample 10 μg/ml during CTL induction +, during expansion +, 14 days): × 178
Expansion Ratio [1, 4]: × 310
Expansion Ratio ([1]; Example 2-7, sample 10 μg/ml during CTL induction +, during expansion +): × 258
Expansion Ratio ([1]; Example 2-7, sample 10 μg/ml during CTL induction +, during expansion −): × 283
Cytotoxic Activity (%) E/T Ratio 1 [2, 5]: 12.0%
Cytotoxic Activity (%) E/T Ratio 3 [2, 5]: 37.9%
Cytotoxic Activity (%) E/T Ratio 10 [2, 5]: 60.7%
Cytotoxic Activity (%) E/T Ratio 1 [2, 6]: 0.3%
Cytotoxic Activity (%) E/T Ratio 3 [2, 6]: 2.2%
Cytotoxic Activity (%) E/T Ratio 10 [2, 6]: 11.7%
cytotoxic activity after continuous culture (in words) [2, 7]: maintaining an antigen-specific cytotoxic activity
Cytotoxic Activity (%) E/T Ratio 3 [3, 8]: 67.0%
Cytotoxic Activity (%) E/T Ratio 10 [3, 8]: 93.7%
Cytotoxic Activity (%) E/T Ratio 3 [3, 9]: 2.8%
Cytotoxic Activity (%) E/T Ratio 10 [3, 9]: 0%
Cytotoxic Activity (%) E/T Ratio 1 [3, 10]: 14.1%
Cytotoxic Activity (%) E/T Ratio 3 [3, 10]: 20.1%
Cytotoxic Activity (%) E/T Ratio 10 [3, 10]: 41.7%
Cytotoxic Activity (%) E/T Ratio 30 [3, 10]: 64.6%
Cytotoxic Activity (%) E/T Ratio 1 [3, 11]: 2.7%
Cytotoxic Activity (%) E/T Ratio 3 [3, 11]: 0%
Cytotoxic Activity (%) E/T Ratio 10 [3, 11]: 1.0%
Cytotoxic Activity (%) E/T Ratio 30 [3, 11]: 3.5%
Cytotoxic Activity (%) E/T Ratio 1 [3, 12]: 9.4%
Cytotoxic Activity (%) E/T Ratio 3 [3, 12]: 23.4%
Cytotoxic Activity (%) E/T Ratio 10 [3, 12]: 44.2%
Cytotoxic Activity (%) E/T Ratio 30 [3, 12]: 82.1%
Cytotoxic Activity (%) E/T Ratio 1 [3, 13]: 0%
Cytotoxic Activity (%) E/T Ratio 3 [3, 13]: 0%
Cytotoxic Activity (%) E/T Ratio 10 [3, 13]: 0%
Cytotoxic Activity (%) E/T Ratio 30 [3, 13]: 1.6%
Cytotoxic Activity (%) E/T Ratio 1 [3, 14]: 14.0%
Cytotoxic Activity (%) E/T Ratio 3 [3, 14]: 34.6%
Cytotoxic Activity (%) E/T Ratio 10 [3, 14]: 50.4%
Cytotoxic Activity (%) E/T Ratio 30 [3, 14]: 83.5%
Cytotoxic Activity (%) E/T Ratio 1 [3, 15]: 6.7%
Cytotoxic Activity (%) E/T Ratio 3 [3, 15]: 6.5%
Cytotoxic Activity (%) E/T Ratio 10 [3, 15]: 9.3%
Cytotoxic Activity (%) E/T Ratio 30 [3, 15]: 9.8%
cytotoxic activity after expansion for 14 days (in words) ([3]; sample 10 μg/ml during CTL induction and during expansion, no EBV-B cells): maintained specific, high cytotoxic activity

non-swellable alginic acid
Expansion Ratio [1, 16]: × 220
Expansion Ratio [1, 4]: × 335
Cytotoxic Activity (%) E/T Ratio 1 [2, 17]: 28.1%
Cytotoxic Activity (%) E/T Ratio 3 [2, 17]: 52.7%
Cytotoxic Activity (%) E/T Ratio 10 [2, 17]: 77.1%
Cytotoxic Activity (%) E/T Ratio 1 [2, 18]: 12.9%
Cytotoxic Activity (%) E/T Ratio 3 [2, 18]: 24.8%
Cytotoxic Activity (%) E/T Ratio 10 [2, 18]: 14.0%
Cytotoxic Activity (%) E/T Ratio 1 [2, 19]: 9.5%
Cytotoxic Activity (%) E/T Ratio 3 [2, 19]: 13.8%
Cytotoxic Activity (%) E/T Ratio 10 [2, 19]: 24.9%
Cytotoxic Activity (%) E/T Ratio 1 [2, 20]: 3.9%
Cytotoxic Activity (%) E/T Ratio 3 [2, 20]: 4.6%
Cytotoxic Activity (%) E/T Ratio 10 [2, 20]: 6.1%
cytotoxic activity after continuous culture (in words) [2, 21]: maintaining an antigen-specific cytotoxic activity
Cytotoxic Activity (%) E/T Ratio 3 [3, 22]: 63.5%
Cytotoxic Activity (%) E/T Ratio 10 [3, 22]: 81.4%
Cytotoxic Activity (%) E/T Ratio 3 [3, 23]: 26.2%
Cytotoxic Activity (%) E/T Ratio 10 [3, 23]: 26.8%
Cytotoxic Activity (%) E/T Ratio 1 [3, 10]: 13.5%
Cytotoxic Activity (%) E/T Ratio 3 [3, 10]: 24.1%
Cytotoxic Activity (%) E/T Ratio 10 [3, 10]: 50.4%
Cytotoxic Activity (%) E/T Ratio 30 [3, 10]: 76.0%
Cytotoxic Activity (%) E/T Ratio 1 [3, 11]: 0.5%
Cytotoxic Activity (%) E/T Ratio 3 [3, 11]: 5.2%
Cytotoxic Activity (%) E/T Ratio 10 [3, 11]: 6.5%
Cytotoxic Activity (%) E/T Ratio 30 [3, 11]: 14.4%

pectic acid
Expansion Ratio [1, 16]: × 160
Expansion Ratio [1, 4]: × 350
Cytotoxic Activity (%) E/T Ratio 2.5 [2, 24]: 32.0%
Cytotoxic Activity (%) E/T Ratio 5 [2, 24]: 49.4%
Cytotoxic Activity (%) E/T Ratio 2.5 [2, 25]: 3.4%
Cytotoxic Activity (%) E/T Ratio 5 [2, 25]: 5.5%
Cytotoxic Activity (%) E/T Ratio 10 [2, 19]: 16.5%
Cytotoxic Activity (%) E/T Ratio 10 [2, 20]: 0%
cytotoxic activity after continuous culture (in words) [2, 7]: effects for maintaining cytotoxic activity
cytotoxic activity after continuous culture (in words) [2, 21]: maintaining an antigen-specific cytotoxic activity
Cytotoxic Activity (%) E/T Ratio 3 [3, 22]: 47.0%
Cytotoxic Activity (%) E/T Ratio 10 [3, 22]: 69.8%
Cytotoxic Activity (%) E/T Ratio 3 [3, 23]: 11.6%
Cytotoxic Activity (%) E/T Ratio 10 [3, 23]: 7.3%
Cytotoxic Activity (%) E/T Ratio 1 [3, 10]: 18.2%
Cytotoxic Activity (%) E/T Ratio 3 [3, 10]: 33.3%
Cytotoxic Activity (%) E/T Ratio 10 [3, 10]: 64.2%
Cytotoxic Activity (%) E/T Ratio 30 [3, 10]: 87.8%
Cytotoxic Activity (%) E/T Ratio 1 [3, 11]: 2.3%
Cytotoxic Activity (%) E/T Ratio 3 [3, 11]: 4.1%
Cytotoxic Activity (%) E/T Ratio 10 [3, 11]: 8.2%
Cytotoxic Activity (%) E/T Ratio 30 [3, 11]: 15.9%

sodium chondroitin sulfate A
Expansion Ratio [1, 16]: × 280
Expansion Ratio [1, 4]: × 383
Cytotoxic Activity (%) E/T Ratio 10 [2, 17]: 75.5%
Cytotoxic Activity (%) E/T Ratio 10 [2, 18]: 21.1%
cytotoxic activity after continuous culture (in words) [2, 7]: continuous culture of CTLs having an antigen-specific cytotoxic activity can be carried out
Cytotoxic Activity (%) E/T Ratio 3 [3, 22]: 56.7%
Cytotoxic Activity (%) E/T Ratio 10 [3, 22]: 89.0%
Cytotoxic Activity (%) E/T Ratio 3 [3, 23]: 0%
Cytotoxic Activity (%) E/T Ratio 10 [3, 23]: 5.3%
Cytotoxic Activity (%) E/T Ratio 1 [3, 10]: 8.0%
Cytotoxic Activity (%) E/T Ratio 3 [3, 10]: 18.7%
Cytotoxic Activity (%) E/T Ratio 10 [3, 10]: 36.6%
Cytotoxic Activity (%) E/T Ratio 30 [3, 10]: 67.6%
Cytotoxic Activity (%) E/T Ratio 1 [3, 11]: 6.3%
Cytotoxic Activity (%) E/T Ratio 3 [3, 11]: 5.6%
Cytotoxic Activity (%) E/T Ratio 10 [3, 11]: 7.5%
Cytotoxic Activity (%) E/T Ratio 30 [3, 11]: 18.8%

sodium chondroitin sulfate B
Expansion Ratio [1, 16]: × 178
Expansion Ratio [1, 4]: × 383
Cytotoxic Activity (%) E/T Ratio 2.5 [2, 24]: 28.1%
Cytotoxic Activity (%) E/T Ratio 5 [2, 24]: 38.1%
Cytotoxic Activity (%) E/T Ratio 10 [2, 24]: 60.7%
Cytotoxic Activity (%) E/T Ratio 2.5 [2, 25]: 0%
Cytotoxic Activity (%) E/T Ratio 5 [2, 25]: 0%
Cytotoxic Activity (%) E/T Ratio 10 [2, 25]: 0.8%
Cytotoxic Activity (%) E/T Ratio 10 [2, 19]: 24.0%
Cytotoxic Activity (%) E/T Ratio 10 [2, 20]: 4.6%
cytotoxic activity after continuous culture (in words) [2, 7]: effects for maintaining cytotoxic activity
cytotoxic activity after continuous culture (in words) [2, 21]: maintaining an antigen-specific cytotoxic activity
Cytotoxic Activity (%) E/T Ratio 3 [3, 22]: 57.8%
Cytotoxic Activity (%) E/T Ratio 10 [3, 22]: 98.2%
Cytotoxic Activity (%) E/T Ratio 3 [3, 23]: 1.0%
Cytotoxic Activity (%) E/T Ratio 10 [3, 23]: 10.7%
Cytotoxic Activity (%) E/T Ratio 1 [3, 10]: 15.2%
Cytotoxic Activity (%) E/T Ratio 3 [3, 10]: 27.2%
Cytotoxic Activity (%) E/T Ratio 10 [3, 10]: 48.1%
Cytotoxic Activity (%) E/T Ratio 30 [3, 10]: 76.2%
Cytotoxic Activity (%) E/T Ratio 1 [3, 11]: 3.9%
Cytotoxic Activity (%) E/T Ratio 3 [3, 11]: 4.4%
Cytotoxic Activity (%) E/T Ratio 10 [3, 11]: 8.3%
Cytotoxic Activity (%) E/T Ratio 30 [3, 11]: 11.8%

sodium salt of sulfated fucose
Expansion Ratio [1, 16]: × 240
Expansion Ratio [1, 4]: × 448
Cytotoxic Activity (%) E/T Ratio 2.5 [2, 24]: 17.6%
Cytotoxic Activity (%) E/T Ratio 5 [2, 24]: 36.6%
Cytotoxic Activity (%) E/T Ratio 10 [2, 24]: 55.3%
Cytotoxic Activity (%) E/T Ratio 2.5 [2, 25]: 0%
Cytotoxic Activity (%) E/T Ratio 5 [2, 25]: 0%
Cytotoxic Activity (%) E/T Ratio 10 [2, 25]: 0.2%
Cytotoxic Activity (%) E/T Ratio 1 [2, 19]: 8.9%
Cytotoxic Activity (%) E/T Ratio 3 [2, 19]: 12.6%
Cytotoxic Activity (%) E/T Ratio 10 [2, 19]: 26.4%
Cytotoxic Activity (%) E/T Ratio 1 [2, 20]: 0%
Cytotoxic Activity (%) E/T Ratio 3 [2, 20]: 0.4%
Cytotoxic Activity (%) E/T Ratio 10 [2, 20]: 3.3%
cytotoxic activity after continuous culture (in words) [2, 7]: effects for maintaining cytotoxic activity
cytotoxic activity after continuous culture (in words) [2, 21]: maintaining an antigen-specific cytotoxic activity
Cytotoxic Activity (%) E/T Ratio 10 [3, 22]: 70.2%
Cytotoxic Activity (%) E/T Ratio 10 [3, 23]: 23.3%
Cytotoxic Activity (%) E/T Ratio 10 [3, 10]: 32.5%
Cytotoxic Activity (%) E/T Ratio 30 [3, 10]: 64.9%
Cytotoxic Activity (%) E/T Ratio 10 [3, 11]: 0%
Cytotoxic Activity (%) E/T Ratio 30 [3, 11]: 1.3%
